# Test results from patent publication US9221791B2, “Metalloenzyme inhibitor compounds” (Viamet Pharmaceuticals, Inc., priority 2011, dated 2015).
# Tested on: Septoria tritici (ATCC 26517)
# Experiment: Minimum Inhibitory Concentration (MIC) (Septoria tritici), CLSI-based microdilution
# Format: cell-based
# Conditions: S. tritici ATCC 26517; 22° C. for seven days; 50% reduction in growth
# Experimental: C. Minimum Inhibitory Concentration (MIC) (Septoria tritici)
# Compounds of the present disclosure were assessed for their ability to inhibit the growth of a common strain of the fungal plant pathogen Septoria tritici (ATCC 26517) using a procedure based on a Clinical and Laboratory Standards Institute (CLSI) microdilution assay protocol for filamentous fungi.
# Stock solutions of the test compounds and standards were prepared in DMSO at 6400 μg/mL. Each stock solution was used to prepare a 2-fold dilution series ranging from 16 to 0.016 μg/mL (total of 11 compound concentrations) in RPMI-1640 (Roswell Park Memorial Institute) medium containing 3-(N-morpholino)propanesulfonic acid (MOPS) buffer and 2% DMSO. A 100 μL aliquot of the dilutions was added to columns 1 (16 μg/mL compound) through 11 (0.016 μg/mL compound) of a 96-well microtiter plate. This format was replicated in a second row of the microtiter plate. Thus, each microtiter plate could include 11 concentrations of four test or control compounds replicated twice. A 100 μL aliquot of RPMI-1640/MOPS/2% DMSO medium was added to column 12 (no compound control) of the microtiter plate.
# A fresh culture of S. tritici was used to prepare a solution of approximately 5×10^4 colony-forming units per milliliter (cfu/mL) in RPMI/MOPS medium without DMSO. A 100 µL aliquot of this solution was added to all 96 wells in the microtiter plate. […] The assay plates were incubated at 22° C. for seven days in the dark without shaking.
# In each case of Table 3 the Septoria rating scale is as follows: […]
row,Compound,Septoria Rating (MIC)
1,"OC(Cn1cnnn1)(c1ccc(F)cc1F)C(F)(F)c1ccc(-c2ccc(Cl)nc2)cn1 (stereo not drawn) [30(+), 1-(6′-Chloro-[3,3′-bipyridin]-6-yl)-2-(2,4-difluorophenyl)-1,1-difluoro-3-(1H-tetrazol-1-yl)propan-2-ol]",B (>1.5-1.5)
2,"OC(Cn1cnnn1)(c1ccc(F)cc1F)C(F)(F)c1ccc(-c2ccc(F)nc2)cn1 (stereo not drawn) [31(+), 2-(2,4-Difluorophenyl)-1,1-difluoro-1-(6′-fluoro-[3,3′-bipyridin]-6-yl)-3-(1H-tetrazol-1-yl)propan-2-ol]",A (≦0.5)

# Same assay, conditions: Zymoseptoria tritici, ATCC26517, 168 h, S. tritici ATCC 26517; 22° C. for seven days; 50% reduction in growth; read-out: Septoria Rating (MIC)
row,Compound,MIC
1,"OC(Cn1cnnn1)(c1cc(F)ccc1F)C(F)(F)c1ccc(Br)cn1 (centres unmarked) [Compound 21, 1-(5-Bromopyridin-2-yl)-2-(2,5-difluorophenyl)-1,1-difluoro-3-(1H-tetrazol-1-yl)propan-2-ol]",> 4 µg/mL
2,"OC(Cn1cnnn1)(c1ccc(F)cc1F)C(F)(F)c1ccc(-c2ccc(C(F)(F)F)nc2)cn1 (centres unmarked) [Compound 35, 2-(2,4-Difluorophenyl)-1,1-difluoro-3-(1H-tetrazol-1-yl)-1-(6′-(trifluoromethyl)-[3,3′-bipyridin]-6-yl)propan-2-ol]",1.5 to 4 µg/mL
3,"COc1ncc(-c2ccc(C(F)(F)C(O)(Cn3cnnn3)c3ccc(F)cc3F)nc2)cn1 (centres unmarked) [Compound 37, 2-(2,4-Difluorophenyl)-1,1-difluoro-1-(5-(2-methoxypyrimidin-5-yl)pyridin-2-yl)-3-(1H-tetrazol-1-yl)propan-2-ol]",1.5 to 4 µg/mL
4,"COC(=O)CSc1ccc(C(F)(F)C(O)(Cn2cnnn2)c2ccc(F)cc2F)nc1 (centres unmarked) [Compound 41, Methyl 2-((6-(2-(2,4-difluorophenyl)-1,1-difluoro-2-hydroxy-3-(1H-tetrazol-1-yl)propyl)pyridin-3-yl)thio)acetate]",> 4 µg/mL
5,"OC(Cn1cnnn1)(c1ccc(F)cc1F)C(F)(F)c1ccc(/C=C/Cn2cnnn2)cn1 (centres unmarked) [Compound 42, (E)-1-(5-(3-(1H-Tetrazol-1-yl)prop-1-en-1-yl)pyridin-2-yl)-2-(2,4-difluorophenyl)-1,1-difluoro-3-(1H-tetrazol-1-yl)propan-2-ol]",> 4 µg/mL
6,"OC/C=C/c1ccc(C(F)(F)C(O)(Cn2cnnn2)c2ccc(F)cc2F)nc1 (centres unmarked) [Compound 43, (E)-3-(6-(2-(2,4-Difluorophenyl)-1,1-difluoro-2-hydroxy-3-(1H-tetrazol-1-yl)propyl)pyridin-3-yl)prop-2-en-1-ol]",1.5 to 4 µg/mL
7,"OCCCc1ccc(C(F)(F)C(O)(Cn2cnnn2)c2ccc(F)cc2F)nc1 (centres unmarked) [Compound 44, 3-(6-(2-(2,4-Difluorophenyl)-1,1-difluoro-2-hydroxy-3-(1H-tetrazol-1-yl)propyl)pyridin-3-yl)propan-1-ol]",1.5 to 4 µg/mL
8,"CC(O)/C=C/c1ccc(C(F)(F)C(O)(Cn2cnnn2)c2ccc(F)cc2F)nc1 (centres unmarked) [Compound 46, (E)-4-(6-(2-(2,4-Difluorophenyl)-1,1-difluoro-2-hydroxy-3-(1H-tetrazol-1-yl)propyl)pyridin-3-yl)but-3-en-2-ol]",1.5 to 4 µg/mL
9,"CC(O)CCc1ccc(C(F)(F)C(O)(Cn2cnnn2)c2ccc(F)cc2F)nc1 (centres unmarked) [Compound 47, 4-(6-(2-(2,4-Difluorophenyl)-1,1-difluoro-2-hydroxy-3-(1H-tetrazol-1-yl)propyl)pyridin-3-yl)butan-2-ol]",1.5 to 4 µg/mL
10,"OC(c1ccc(C(F)(F)C(O)(Cn2cnnn2)c2ccc(F)cc2F)nc1)C(F)(F)F (centres unmarked) [Compound 56, (2-(2,4-Difluorophenyl)-1,1-difluoro-3-(1H-tetrazol-1-yl)-1-(5-(2,2,2-trifluoro-1-hydroxyethyl)pyridin-2-yl)propan-2-ol)]",> 4 µg/mL
11,"OC(Cn1cnnn1)(c1ccc(F)cc1F)C(F)(F)c1ccc(-c2cnc(Cl)nc2)cn1 (centres unmarked) [Compound 57, 1-(5-(2-Chloropyrimidin-5-yl)pyridin-2-yl)-2-(2,4-difluorophenyl)-1,1-difluoro-3-(1H-tetrazol-1-yl)propan-2-ol]",> 4 µg/mL
12,"C=CCc1ccc(C(F)(F)C(O)(Cn2cnnn2)c2ccc(F)cc2F)nc1 (centres unmarked) [Compound 61, 1-(5-Allylpyridin-2-yl)-2-(2,4-difluorophenyl)-1,1-difluoro-3-(1H-tetrazol-1-yl)propan-2-ol]",1.5 to 4 µg/mL

# Second part, the molecule after the results:
row,MIC,Compound
1,1.5 µg/mL,"OC(Cn1cnnn1)(c1ccc(F)cc1F)C(F)(F)c1cc(F)ccn1 (single isomer, unassigned) [ent-13, 2-(2,4-Difluorophenyl)-1,1-difluoro-1-(4-fluoropyridin-2-yl)-3-(1H-tetrazol-1-yl)propan-2-ol]"
2,1.5 µg/mL,"N#C/C=C/c1ccc(C(F)(F)C(O)(Cn2cnnn2)c2ccc(F)cc2F)nc1 (centres unmarked) [Compound 3, (E)-3-(6-(2-(2,4-Difluorophenyl)-1,1-difluoro-2-hydroxy-3-(1H-tetrazol-1-yl)propyl)pyridin-3-yl)acrylonitrile]"
3,≤ 0.5 µg/mL,"CCOC(=O)CCc1ccc(C(F)(F)C(O)(Cn2cnnn2)c2ccc(F)cc2F)nc1 (centres unmarked) [Compound 5, Ethyl 3-(6-(2-(2,4-difluorophenyl)-1,1-difluoro-2-hydroxy-3-(1H-tetrazol-1-yl)propyl)pyridin-3-yl)propanoate]"
4,1.5 to 4 µg/mL,"CC(=O)/C=C/c1ccc(C(F)(F)C(O)(Cn2cnnn2)c2ccc(F)cc2F)nc1 (centres unmarked) [Compound 7, (E)-4-(6-(2-(2,4-Difluorophenyl)-1,1-difluoro-2-hydroxy-3-(1H-tetrazol-1-yl)propyl)pyridin-3-yl)but-3-en-2-one]"
5,1.5 µg/mL,"CC(=O)CCc1ccc(C(F)(F)C(O)(Cn2cnnn2)c2ccc(F)cc2F)nc1 (centres unmarked) [Compound 8, 4-(6-(2-(2,4-Difluorophenyl)-1,1-difluoro-2-hydroxy-3-(1H-tetrazol-1-yl)propyl)pyridin-3-yl)butan-2-one]"
6,1.5 to 4 µg/mL,"OC(Cn1cnnn1)(c1ccc(F)cc1F)C(F)(F)c1ccc(-n2nccn2)cn1 (centres unmarked) [Compound 9, 1-(5-(2H-1,2,3-Triazol-2-yl)pyridin-2-yl)-2-(2,4-difluorophenyl)-1,1-difluoro-3-(1H-tetrazol-1-yl)propan-2-ol]"
7,1.5 to 4 µg/mL,"OC(Cn1cnnn1)(c1ccc(Cl)cc1F)C(F)(F)c1ccccn1 (centres unmarked) [Compound 11, 2-(4-Chloro-2-fluorophenyl)-1,1-difluoro-1-(pyridin-2-yl)-3-(1H-tetrazol-1-yl)propan-2-ol]"
8,1.5 µg/mL,"OC(Cn1cnnn1)(c1ccc(F)cc1F)C(F)(F)c1ccc(Cl)cn1 (centres unmarked) [Compound 12, 1-(5-Chloropyridin-2-yl)-2-(2,4-difluorophenyl)-1,1-difluoro-3-(1H-tetrazol-1-yl)propan-2-ol]"
9,1.5 to 4 µg/mL,"OC(Cn1cnnn1)(c1ccc(F)cc1F)C(F)(F)c1cc(Cl)ccn1 (centres unmarked) [Compound 14, 1-(4-Chloropyridin-2-yl)-2-(2,4-difluorophenyl)-1,1-difluoro-3-(1H-tetrazol-1-yl)propan-2-ol]"
10,1.5 to 4 µg/mL,"OC(Cn1cnnn1)(c1ccc(F)cc1F)C(F)(F)c1ccc(C(F)(F)F)cn1 (centres unmarked) [Compound 19, 2-(2,4-Difluorophenyl)-1,1-difluoro-3-(1H-tetrazol-1-yl)-1-(5-(trifluoromethyl)pyridin-2-yl)propan-2-ol]"
11,1.5 to 4 µg/mL,"OC(Cn1cnnn1)(c1ccc(F)cc1F)C(F)(F)c1cccc(Br)n1 (centres unmarked) [Compound 20, 1-(6-Bromopyridin-2-yl)-2-(2,4-difluorophenyl)-1,1-difluoro-3-(1H-tetrazol-1-yl)propan-2-ol]"
12,1.5 to 4 µg/mL,"OC(Cn1cnnn1)(c1ccc(C(F)(F)F)cc1F)C(F)(F)c1ccc(Br)cn1 (centres unmarked) [Compound 23, 1-(5-Bromopyridin-2-yl)-1,1-difluoro-2-(2-fluoro-4-(trifluoromethyl)phenyl)-3-(1H-tetrazol-1-yl)propan-2-ol]"
13,1.5 to 4 µg/mL,"OC(Cn1cnnn1)(c1ccc(F)cc1F)C(F)(F)c1cc(Br)ccn1 (centres unmarked) [Compound 24, 1-(4-Bromopyridin-2-yl)-2-(2,4-difluorophenyl)-1,1-difluoro-3-(1H-tetrazol-1-yl)propan-2-ol]"
14,1.5 µg/mL,"COC/C=C/c1ccc(C(F)(F)C(O)(Cn2cnnn2)c2ccc(F)cc2F)nc1 (centres unmarked) [Compound 48, (E)-2-(2,4-Difluorophenyl)-1,1-difluoro-1-(5-(3-methoxyprop-1-en-1-yl)pyridin-2-yl)-3-(1H-tetrazol-1-yl)propan-2-ol]"
15,≤ 0.5 µg/mL,"COC/C=C\c1ccc(C(F)(F)C(O)(Cn2cnnn2)c2ccc(F)cc2F)nc1 (centres unmarked) [Compound 49, (Z)-2-(2,4-Difluorophenyl)-1,1-difluoro-1-(5-(3-methoxyprop-1-en-1-yl)pyridin-2-yl)-3-(1H-tetrazol-1-yl)propan-2-ol]"
16,1.5 µg/mL,"COCCCc1ccc(C(F)(F)C(O)(Cn2cnnn2)c2ccc(F)cc2F)nc1 (centres unmarked) [Compound 50, 2-(2,4-Difluorophenyl)-1,1-difluoro-1-(5-(3-methoxypropyl)pyridin-2-yl)-3-(1H-tetrazol-1-yl)propan-2-ol]"
17,≤ 0.5 µg/mL,"CC(C)OCCCc1ccc(C(F)(F)C(O)(Cn2cnnn2)c2ccc(F)cc2F)nc1 (centres unmarked) [Compound 55, 2-(2,4-Difluorophenyl)-1,1-difluoro-1-(5-(3-isopropoxypropyl)pyridin-2-yl)-3-(1H-tetrazol-1-yl)propan-2-ol]"
18,1.5 µg/mL,"OC(c1cncnc1)(c1ccc(F)cc1F)C(F)(F)c1ccc(Br)cn1 (centres unmarked) [Compound 58, 2-(5-Bromopyridin-2-yl)-1-(2,4-difluorophenyl)-2,2-difluoro-1-(pyrimidin-5-yl)ethanol]"
